One molecule from US9901538B2, “Personal care composition containing yeast/polyphenol ferment extract” (priority 2008, dated 2018) can be followed below.

This assay relates to Pichia pastoris. The experiment in a line: 2-Dimensional gel electrophoresis of yeast protein expression. The assay is classed as cell-based. The settings on record: 2D gel, 626 spots analyzed, FIG. 2 and 3. Here is the method: To identify the metabolic changes in the yeast because of the polyphenol feed-strategy, 2-Dimensional gel electrophoreses and gene microarray analysis was conducted on the control, (i.e., a yeast extract without resveratrol growth factor), and a yeast-resveratrol ferment extract produced by the process of the present invention. The first dimension IEF focuses on separation of the proteins based on their isoelectric points and was conducted using the EttanIPGphor system with a manifold for protein loading. The 2nd dimension SDS-PAGE is an electrophoretic method for separating polypeptides according to their molecular weights using the DALT VI Electrophoresis Unit (GE-Amersham, Piscataway N.J.) (2, 6). To remove interfering substances and impurities, the yeast cell extracts were purified using the 2D Clean-up kit provided by GE Amersham. Each purified yeast sample was rehydrated overnight with Thiourea rehydration solution (7M Urea and 2M Thiourea, 2% Chaps, 0.5% Pharmalyte). The rehydrated samples were loaded onto the 1st dimension IEF. […]
FIG. 3 illustrates the laser densitometer comparison of the control versus the yeast/resveratrol of the invention. Reference spot numbering, pI, and MW are given for changing polypeptide spots and analyzed in the samples. […] A total of 626 spots were analyzed.

Regarding `Oc1ccc(/C=C/c2cc(O)cc(O)c2)cc1` [resveratrol, 3,4,5-transhydroxystilbene], the “proteomic changes of the yeast versus untreated control” value is listed as “significant proteomic changes”.
